Measurements taken from PubChem BioAssay AID1963431 (Molecular Pharmacology Branch, DTP, NCI, 2024).
Blank lines part the entries; values can stand above or below the molecule they belong to.

System: Rh18 complex spheroid viability, percent test/control
Experiment: Anticancer human tumor Rh18 cell line growth inhibition [Asc];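 also: spheroids exposed to compound for 7 days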;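 as to viability, T/C: 100% = DMSO vehicle control wells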
Conditions: for IC50: curve of first compound; for viability, T/C: stronger effect = lower value
Procedure, shortened: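 Tumor cells were grown as complex spheroids with human endothelial cells (HUVEC) and human mesenchymal stem cells as stroma. Agents were tested alone and in combination, in half-log steps down from the clinical Cmax, or from 10 microM where Cmax was unknown.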

[1] = second compound 0.1 µM, first compound 0.00316 µM
[2] = second compound 0.1 µM, first compound 0.01 µM
[3] = second compound 0.1 µM, first compound 0.0316 µM
[4] = second compound 0.1 µM, first compound 0.1 µM
[5] = second compound 0.316 µM, first compound 0.00316 µM
[6] = second compound 0.316 µM, first compound 0.01 µM
[7] = second compound 0.316 µM, first compound 0.0316 µM
[8] = second compound 0.316 µM, first compound 0.1 µM
[9] = second compound 1 µM, first compound 0.00316 µM
[10] = second compound 1 µM, first compound 0.01 µM
[11] = second compound 1 µM, first compound 0.0316 µM
[12] = second compound 1 µM, first compound 0.1 µM
[13] = second compound 3.16 µM, first compound 0.00316 µM
[14] = second compound 3.16 µM, first compound 0.01 µM
[15] = second compound 3.16 µM, first compound 0.0316 µM
[16] = second compound 3.16 µM, first compound 0.1 µM
[17] = second compound 10 µM, first compound 0.00316 µM
[18] = second compound 10 µM, first compound 0.01 µM
[19] = second compound 10 µM, first compound 0.0316 µM
[20] = second compound 10 µM, first compound 0.1 µM

- IC50 (second compound 0.1 µM): < 0.949 nM
- IC50 (second compound 0.316 µM): < 0.949 nM
- IC50 (second compound 1 µM): < 0.949 nM
- IC50 (second compound 3.16 µM): < 0.949 nM
- IC50 (second compound 10 µM): < 0.949 nM
Structure (SMILES): NC(=O)C(=Cn1cnc(-c2cc(C(F)(F)F)cc(C(F)(F)F)c2)n1)c1cncnc1 + Cc1c(S(C)(=O)=O)c(-c2cc(F)cc(N3CCN(c4ccc(NS(=O)(=O)c5ccc(NC(CCN6CCC(C(=O)OCCCP(=O)(O)O)CC6)CSc6ccccc6)c(S(=O)(=O)C(F)(F)F)c5)cc4)CC3)c2)c(-c2ccc(Cl)cc2)n1C(C)C
- viability, T/C (second compound 0.1 µM, first compound 0.000949 µM): 13.5%
- viability, T/C (second compound 0.1 µM, first compound 0.003 µM): 16.7%
- viability, T/C (second compound 0.1 µM, first compound 0.00949 µM): 18.6%
- viability, T/C (second compound 0.1 µM, first compound 0.03 µM): 13.7%
- viability, T/C (second compound 0.1 µM, first compound 0.0949 µM): 9.41%
- viability, T/C (second compound 0.1 µM, first compound 0.3 µM): 5.69%
- viability, T/C (second compound 0.316 µM, first compound 0.000949 µM): 15.2%
- viability, T/C (second compound 0.316 µM, first compound 0.003 µM): 13.6%
- viability, T/C (second compound 0.316 µM, first compound 0.00949 µM): 10.8%
- viability, T/C (second compound 0.316 µM, first compound 0.03 µM): 9.84%
- viability, T/C (second compound 0.316 µM, first compound 0.0949 µM): 9.11%
- viability, T/C (second compound 0.316 µM, first compound 0.3 µM): 3.67%
- viability, T/C (second compound 1 µM, first compound 0.000949 µM): 10.2%
- viability, T/C (second compound 1 µM, first compound 0.003 µM): 9.49%
- viability, T/C (second compound 1 µM, first compound 0.00949 µM): 8.9%
- viability, T/C (second compound 1 µM, first compound 0.03 µM): 7.48%
- viability, T/C (second compound 1 µM, first compound 0.0949 µM): 7.03%
- viability, T/C (second compound 1 µM, first compound 0.3 µM): 2.37%
- viability, T/C (second compound 3.16 µM, first compound 0.000949 µM): 7.63%
- viability, T/C (second compound 3.16 µM, first compound 0.003 µM): 8.78%
- viability, T/C (second compound 3.16 µM, first compound 0.00949 µM): 7.9%
- viability, T/C (second compound 3.16 µM, first compound 0.03 µM): 5.11%
- viability, T/C (second compound 3.16 µM, first compound 0.0949 µM): 4.79%
- viability, T/C (second compound 3.16 µM, first compound 0.3 µM): 2.11%
- viability, T/C (second compound 10 µM, first compound 0.000949 µM): 4.44%
- viability, T/C (second compound 10 µM, first compound 0.003 µM): 6.25%
- viability, T/C (second compound 10 µM, first compound 0.00949 µM): 6.34%
- viability, T/C (second compound 10 µM, first compound 0.03 µM): 5.72%
- viability, T/C (second compound 10 µM, first compound 0.0949 µM): 3.51%
- viability, T/C (second compound 10 µM, first compound 0.3 µM): 1.84%

- IC50 (second compound 0.1 µM): < 0.316 nM
- IC50 (second compound 0.316 µM): < 0.316 nM
- IC50 (second compound 1 µM): < 0.316 nM
- IC50 (second compound 3.16 µM): < 0.316 nM
- IC50 (second compound 10 µM): < 0.316 nM
Structure (SMILES): NC1CCC(NC2CC2c2ccccc2)CC1 (stereo not given) + Cc1c(S(C)(=O)=O)c(-c2cc(F)cc(N3CCN(c4ccc(NS(=O)(=O)c5ccc(NC(CCN6CCC(C(=O)OCCCP(=O)(O)O)CC6)CSc6ccccc6)c(S(=O)(=O)C(F)(F)F)c5)cc4)CC3)c2)c(-c2ccc(Cl)cc2)n1C(C)C
- viability, T/C (second compound 0.1 µM, first compound 0.000316 µM): 13.1%
- viability, T/C (second compound 0.1 µM, first compound 0.001 µM): 13.2%
- viability, T/C [1]: 10.9%
- viability, T/C [2]: 10.2%
- viability, T/C [3]: 12.5%
- viability, T/C [4]: 11.2%
- viability, T/C (second compound 0.316 µM, first compound 0.000316 µM): 10.4%
- viability, T/C (second compound 0.316 µM, first compound 0.001 µM): 9.84%
- viability, T/C [5]: 8.02%
- viability, T/C [6]: 8.28%
- viability, T/C [7]: 8.54%
- viability, T/C [8]: 8.22%
- viability, T/C (second compound 1 µM, first compound 0.000316 µM): 6.65%
- viability, T/C (second compound 1 µM, first compound 0.001 µM): 6.65%
- viability, T/C [9]: 6.88%
- viability, T/C [10]: 4.85%
- viability, T/C [11]: 5.16%
- viability, T/C [12]: 5.77%
- viability, T/C (second compound 3.16 µM, first compound 0.000316 µM): 4.21%
- viability, T/C (second compound 3.16 µM, first compound 0.001 µM): 3.65%
- viability, T/C [13]: 3.75%
- viability, T/C [14]: 3.61%
- viability, T/C [15]: 3.49%
- viability, T/C [16]: 4.43%
- viability, T/C (second compound 10 µM, first compound 0.000316 µM): 2.72%
- viability, T/C (second compound 10 µM, first compound 0.001 µM): 3.65%
- viability, T/C [17]: 3%
- viability, T/C [18]: 2.12%
- viability, T/C [19]: 2.21%
- viability, T/C [20]: 2.07%

- IC50 (second compound 0.1 µM): < 3.16 nM
- IC50 (second compound 0.316 µM): < 3.16 nM
- IC50 (second compound 1 µM): < 3.16 nM
- IC50 (second compound 3.16 µM): < 3.16 nM
- IC50 (second compound 10 µM): < 3.16 nM
Structure (SMILES): O=C(c1ccc(F)c(F)c1Nc1ccc(I)cc1F)N1CC(O)([C@@H]2CCCCN2)C1 + Cc1c(S(C)(=O)=O)c(-c2cc(F)cc(N3CCN(c4ccc(NS(=O)(=O)c5ccc(NC(CCN6CCC(C(=O)OCCCP(=O)(O)O)CC6)CSc6ccccc6)c(S(=O)(=O)C(F)(F)F)c5)cc4)CC3)c2)c(-c2ccc(Cl)cc2)n1C(C)C
- viability, T/C [1]: 14.8%
- viability, T/C [2]: 13.6%
- viability, T/C [3]: 17.2%
- viability, T/C [4]: 11%
- viability, T/C (second compound 0.1 µM, first compound 0.316 µM): 6.6%
- viability, T/C (second compound 0.1 µM, first compound 1 µM): 1.12%
- viability, T/C [5]: 9.21%
- viability, T/C [6]: 11.2%
- viability, T/C [7]: 11%
- viability, T/C [8]: 8.03%
- viability, T/C (second compound 0.316 µM, first compound 0.316 µM): 4.04%
- viability, T/C (second compound 0.316 µM, first compound 1 µM): 0.96%
- viability, T/C [9]: 8.77%
- viability, T/C [10]: 14.6%
- viability, T/C [11]: 6.89%
- viability, T/C [12]: 7.25%
- viability, T/C (second compound 1 µM, first compound 0.316 µM): 3.29%
- viability, T/C (second compound 1 µM, first compound 1 µM): 0.52%
- viability, T/C [13]: 7.36%
- viability, T/C [14]: 7.93%
- viability, T/C [15]: 7.81%
- viability, T/C [16]: 5.28%
- viability, T/C (second compound 3.16 µM, first compound 0.316 µM): 1.59%
- viability, T/C (second compound 3.16 µM, first compound 1 µM): 0.38%
- viability, T/C [17]: 5.3%
- viability, T/C [18]: 4.85%
- viability, T/C [19]: 4.39%
- viability, T/C [20]: 2.53%
- viability, T/C (second compound 10 µM, first compound 0.316 µM): 1.08%
- viability, T/C (second compound 10 µM, first compound 1 µM): 0.6%
